# Test results taken from US20150297718A1, “ION[…] OF CATIONIC PRODRUGS FOR TOPICAL TREATMENT OF MUSCU[…] SKIN DISEASES” (priority 2014, published 2015).
# Columns and labels:
# melanoma cell (A375) = test: In vitro cell viability assay on melanoma cell growth; type: cell-based; details: Homo sapiens, A-375, A375 cells, read-out: 50% inhibition concentration (IC50) on melanoma cell (A375) growth
# Text: The drug concentrations in the skin after the iontophoresis delivery of those prodrugs or their parent drug ketoprofen from different iontophoresis conditions are summarized in Table 2. The high drug concentration in the skin can be used for treatment of skin diseases including skin cancers such as melanoma. […] The ketoprofen concentrations in the skin from the iontophoresis delivery was not higher than its IC50 against the melanoma cell growth, but the KCE and KME concentrations in the skin from the anode iontophoresis delivery were higher than their IC50 against the melanoma cell growth. Thus, the anode iontophoresis of the prodrugs can provide high drug accumulation in the skin, and such high drug accumulation in the skin can be used for skin disease treatment.
# [1] = test system: knee arthritis pain model (monosodium iodoacetate); test: MIA knee osteoarthritis rat model treated with iontophoresis; type: in vivo; details: 0.4 mA/cm^2 for 20 min on days 1, 2, 3 after MIA; versus iontophoresis of NaCl
# Procedure: A knee arthritis pain model was established by injection of 50 μl of 60 mg/ml monosodium iodoacetate (MIA) into the left hind knee joint of 12 hairless rats, and they were divided into three groups. The knee diameters of both hind knees were measured. The difference in knee diameters between the left knee and right knee was used as the indicator of the swelling (or inflammation) of the left knee. In addition, the weight bearing of each hind limb was also measured with a Linton incapacitance tester. The percentage of the weight bearing by the left leg was used as an indicator of the pain level in the knee. At 1 day, 2 days, 3 days after the injection of MIA, the left knee of the rats in group 1 was treated with iontophoresis of NaCl to the left hind knee at 0.4 mA/cm^2 for 20 min, group 2 treated with iontophoresis of Kt to the left hind knee at 0.4 mA/cm^2 for 20 min, and group 3 treated with iontophoresis of KCE to the left hind knee at 0.4 mA/cm^2 for 20 min. The knee diameter and weight bearing were measured at day 0 before the MIA injection, and also at day 1, 2, and 3 after the MIA injection but before the iontophoresis treatment. They were also measured at day 4, 6, and 10 after the MIA injection.
# [2] = Iontophoresis delivery into hairless rat knee joint: tissue and plasma drug concentrations; type: in vivo; details: 0.4 mA/cm^2 for 20 min on knee
# Procedure: Hairless rats were anaesthetized with isoflurane. A rubber disk shape applicator with a sponge that can hold 0.5 ml of the drug solution was used and a button Ag/AgCl electrode was used as current driving electrode. The delivery area is about 1.2 cm^2. After drug solution was loaded into the sponge, the applicator was placed on the knee cap skin and applied an electric current at 0.4 mA/cm^2 for 20 min. A return electrode was attached to the upper tail of the rat. After that, the skin was cleaned thoroughly with wet Kim wipes. The tissues (skin, muscle and joint) at the application site knee and also the contralateral site knee were collected at 30 min, 2 hr, 4 hr or 6 hr from the start of iontophoresis delivery. Three animals were used for each time point. Blood samples were also collected at appropriate time points. The tissue and blood samples were stored at −80° C. until further processing.
# [3] = In vivo rat study of iontophoresis delivery on dorsal back skin: tissue and plasma drug concentrations; details: for Drug concentration in the skin: delivered drug (prodrug or ketoprofen)
# Procedure: (§1) The anode iontophoresis of ketoprofen cationic prodrugs KCE, KME and cathode iontophoresis of ketoprofen were compared with an in vivo rat study for evaluation of drug penetration into deep tissues. […] A prodrug solution was loaded in the cell. A constant current of 0.4 mA/cm^2 for iontophoresis was applied for 6 hours. At the end of the iontophoresis delivery, the rats were euthanized. The skin of the application site (under the glass cell) was washed with water, tape stripped once to remove residue drug on skin, and then dissected with a biopsy punch for the tissue layers: epidermis and dermis layer (depth 0-3 mm), subcutaneous tissue (fat pad) (3-4 mm), shallow muscle layer (4-6 mm), and deep muscle (6-10 mm). The tissues from the contralateral site were dissected with the same method. In addition, the plasma blood samples were obtained right before the experiment (time 0) and each hour during the experiment. The drug concentrations in the tissue and plasma samples were analyzed with a HPLC.
# as §1, with “cationic prodrugs and cathode” for “cationic prodrugs KCE, KME and cathode”, “ketoprofen were also compared with” for “ketoprofen were compared with”, “rat study at 0.4 mA/cm^2 for a shorter duration of 2 hours for evaluation” for “rat study for evaluation”, “applied for 2 hours. At” for “applied for 6 hours. At”
# as §1, with “cationic prodrugs and cathode” for “cationic prodrugs KCE, KME and cathode”, “ketoprofen were also compared with” for “ketoprofen were compared with”, “rat study at 0.057 mA/cm^2 for a duration of 6 hours for evaluation” for “rat study for evaluation”, “current of 0.057 mA/cm^2 for” for “current of 0.4 mA/cm^2 for”, “with a HPLC” for “with a HPLC.”
# KPE is a prodrug of ketoprofen but with two methyl groups on the nitrogen atom, instead of three methyl groups on the nitrogen atom like KCE and KME. KPE can be presented as a hydrochloride salt. […] Anode iontophoresis delivery of KPE in this aqueous solution at 0.4 mA/cm^2 for a shorter duration of 2 hour was also conducted with the in vivo rat study.
structure (smiles),measurement,setting,value
"CC(C(=O)O)c1cccc(C(=O)c2ccccc2)c1 (centres unmarked) [Ketoprofen, reference compound]",IC50,melanoma cell (A375),1400 µM
same,Knee swelling (knee diameter difference left vs right),[1],not as effective
same,Weight bearing of the left leg (pain indicator),[1],not as effective
same,Plasma Kt concentration,[2],high initial plasma Kt concentration than iontophoresis of the cationic prodrug KCE
same,Tissue drug concentrations / direct penetration at the application site,[3]; 0.057 mA/cm^2 for 6 hours,"only achieved skin deep penetration with no direct penetration into subcutaneous, shallow muscle or deep muscle tissue"
same,Tissue drug concentrations / direct penetration at the application site,[3]; 0.4 mA/cm^2 for 2 hours,"only achieved skin deep penetration with no direct penetration into subcutaneous, shallow muscle or deep muscle tissue"
same,Plasma drug concentration,[3]; 0.4 mA/cm^2 for 6 hours,high
same,Tissue drug concentrations / direct penetration at the application site,[3]; 0.4 mA/cm^2 for 6 hours,can only penetrate skin deep
same,Drug concentration in the skin,[3]; iontophoresis 0.057 mA/cm^2 for 6 hrs,59 μmol per kilogram of skin
same,Drug concentration in the skin,[3]; iontophoresis 0.4 mA/cm^2 for 2 hrs,378 μmol per kilogram of skin
same,Drug concentration in the skin,[3]; iontophoresis 0.4 mA/cm^2 for 6 hrs,417 μmol per kilogram of skin
